Our source for the IC50 and fold induction values is patent US20220324835A1 (Nurix Therapeutics, Inc., priority 2018, published 2022).

Where only a bound is given, the exact number is not on record here.

Assay [1] deals with T1, Cbl-b (Homo sapiens, UniProt Q13191). Briefly: Cbl-b inhibition assay (Cbl-b activity assay, FRET, Biological Example 1; 100 mM NaCl, 60 nM Src kinase). The class given is biochemical. Particulars: upper bound stated in text lists; read-out: IC50 values in the Cbl-b inhibition assay of Biological Example 1. The method, boiled down:
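Here, the E2 UbcH5B, irreversibly linked to Bodipy-fluorescein ubiquitin, binds Cbl-b once Src kinase phosphorylates it; Cbl-b carries an N-terminal biotinylated Avi-tag captured by streptavidin-terbium. An absent FRET signal indicates inhibition.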

For assay [2], the system named is T-cell. As to the kind of experiment: IL-2 secretion from T-cells co-stimulated with anti-CD3 and anti-CD28 antibody (Biological Example 2). Particulars: Homo sapiens, T-cell, primary human total T-cells, baseline = anti-CD3/anti-CD28 stimulated cells without inhibitor, read-out: IL-2 secretion, Anti-CD3/Anti-CD28 stimulation, fold change over baseline; for fold induction at 0.3 µM: 0.3 μM compound; for fold induction at 1 µM: 1 μM compound; for fold induction at 4 µM: 4 μM compound. The class given is cell-based, human. The method, boiled down:
(§1)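 T-cells were stimulated with anti-CD3 antibody alone or with anti-CD28 antibody, in the presence or absence of Cbl-b inhibitor. IL-2 secretion or CD25 surface staining was measured, and values expressed as fold over the uninhibited baseline […].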

The test system of assay [3] is T-cell. Briefly: CD25 cell surface staining on T-cells co-stimulated with anti-CD3 and anti-CD28 antibody (Biological Example 2). To be noted: Homo sapiens, T-cell, primary human total T-cells, baseline = anti-CD3/anti-CD28 stimulated cells without inhibitor, read-out: CD25 staining, Anti-CD3/Anti-CD28 stimulation, fold change over baseline; for fold induction at 0.3 µM: 0.3 μM compound; for fold induction at 1 µM: 1 μM compound; for fold induction at 4 µM: 4 μM compound. Type of assay: cell-based, human. An outline of the steps: as §1

The target of assay [4] is T1, Cbl-b. Briefly: Cbl-b activity assay (Cbl-b inhibition assay), TR-FRET of Cbl-b interaction with UbcH5B-Ub. To be noted: assay buffer with 100 mM NaCl, 60 nM Src kinase; read-out: Cbl-b activity IC50. Type of assay: biochemical. The method, boiled down:
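UbcH5B (C85K) conjugated to N-terminally Bodipy-Fluorescein-labeled ubiquitin served as the fluorescent partner. After compound preincubation, Src kinase (60 nM) with 1 mM ATP and 5 mM MgCl2 (final) was added for 1.5 h, followed by a further 1 h incubation. Some values were obtained with 50 mM NaCl and 30 nM Src.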

The test system of assay [5] is T-cell. As to the kind of experiment: IL-2 secretion from T-cells stimulated with anti-CD3 antibody alone (Biological Example 2). The class given is cell-based. Particulars: primary human total T-cells, read-out: IL-2 secretion, Anti-CD3 stimulation, fold change over baseline; for fold induction at 1 µM: 1 μM compound; for fold induction at 8 µM: 8 μM compound.
Assay [6] deals with T-cell. Briefly: CD25 cell surface staining on T-cells stimulated with anti-CD3 antibody alone (Biological Example 2). Particulars: primary human total T-cells, baseline = anti-CD3/anti-CD28 stimulated cells without inhibitor, read-out: CD25 staining, Anti-CD3 stimulation, fold change over baseline; for fold induction at 1 µM: 1 μM compound; for fold induction at 8 µM: 8 μM compound. The class given is cell-based.

T1 sequence (Q13191 36-427): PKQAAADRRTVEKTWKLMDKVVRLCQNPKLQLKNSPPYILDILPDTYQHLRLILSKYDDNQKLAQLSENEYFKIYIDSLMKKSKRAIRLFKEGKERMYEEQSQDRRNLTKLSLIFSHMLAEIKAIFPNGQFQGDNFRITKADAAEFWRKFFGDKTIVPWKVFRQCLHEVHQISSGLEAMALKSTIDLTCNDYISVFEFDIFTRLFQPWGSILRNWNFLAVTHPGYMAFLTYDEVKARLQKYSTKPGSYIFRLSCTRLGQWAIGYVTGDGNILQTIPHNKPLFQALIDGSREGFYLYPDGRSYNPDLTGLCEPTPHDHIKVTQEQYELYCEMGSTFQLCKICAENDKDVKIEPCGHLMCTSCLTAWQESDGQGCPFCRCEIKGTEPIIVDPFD

For the compound `Cn1cnnc1CC1(c2cccc(N3Cc4c(cc(CN5CC(C)(F)C5)cc4C(F)(F)F)C3=O)c2)COC1` [Compound 424, 6-((3-fluoro-3-methylazetidin-1-yl)methyl)-2-(3-(3-((4-methyl-4H-1,2,4-triazol-3-yl)methyl)oxetan-3-yl)phenyl)-4-(trifluoromethyl)isoindolin-1-one], the results for the IC50 in assay [1] and in assay [4] were at most 100 nM and under 100 nM, respectively. Further, the fold induction at 0.3 µM in assay [2] was over 7.5; in assay [3], 1.31 to 1.5. In addition, the fold induction at 1 µM is over 7.5 in assay [2], 1.51 to 1.75 in assay [3], over 0.201 in assay [5] and over 1 in assay [6]. The fold induction at 4 µM in assay [2] was over 7.5; in assay [3] it was 1.51 to 1.75. In addition, the fold induction at 8 µM in assay [5] is over 0.201; in assay [6], over 1.

As for `Cn1cnnc1CC1(c2cccc(N3Cc4c(cc(CN5CC(C)(C#N)C5)cc4C(F)(F)F)C3=O)c2)COC1` [Compound 425, 3-methyl-1-((2-(3-(3-((4-methyl-4H-1,2,4-triazol-3-yl)methyl)oxetan-3-yl)phenyl)-3-oxo-7-(trifluoromethyl)isoindolin-5-yl)methyl)azetidine-3-carbonitrile], the IC50 in assay [1] is at most 100 nM; in assay [4], under 100 nM. For the same compound, the fold induction at 0.3 µM lay in the range of 2.51 to 5 in assay [2] and 1.01 to 1.3 in assay [3]. For the same compound, the fold induction at 1 µM in assay [2] is over 7.5; in assay [3], 1.31 to 1.5; in assay [5], 0.151 to 0.2; in assay [6], 0.601 to 0.8. In addition, the values for the fold induction at 4 µM in assay [2] and in assay [3] were over 7.5 and 1.51 to 1.75, respectively. Moreover, the fold induction at 8 µM was 0.051 to 0.1 in assay [5] and under 0.6 in assay [6].

Consider `Cn1cnnc1CC1(c2cccc(N3Cc4c(cc(CN5CCCC5=O)cc4C(F)(F)F)C3=O)c2)COC1` [Compound 426, 2-(3-(3-((4-methyl-4H-1,2,4-triazol-3-yl)methyl)oxetan-3-yl)phenyl)-6-((2-oxopyrrolidin-1-yl)methyl)-4-(trifluoromethyl)isoindolin-1-one], for which the concentration for half-maximal inhibition (IC50) in assay [1] was at most 100 nM; in assay [4] it was under 100 nM. The figures for the fold induction at 0.3 µM in assay [2] and in assay [3] were 1.01 to 2.5 and 1.01 to 1.3, respectively. For the same compound, the fold induction at 1 µM in assay [2] is 1.01 to 2.5; in assay [3] it was 1.01 to 1.3; in assay [5], 0.151 to 0.2; in assay [6], over 1. Besides, the fold induction at 4 µM in assay [2] was 2.51 to 5; in assay [3], 1.01 to 1.3. The values for the fold induction at 8 µM in assay [5] and in assay [6] were over 0.201 and over 1, respectively.

`C[C@H]1C=CCN1Cc1cc2c(c(C(F)(F)F)c1)CN(c1cccc(C3(Cc4nncn4C)COC3)c1)C2=O` [Compound 427]: the IC50 is at most 100 nM in assay [1] and under 100 nM in assay [4]. Moreover, the results for the fold induction at 0.3 µM in assay [2] and in assay [3] were over 7.5 and 1.31 to 1.5, respectively. In addition, the fold induction at 1 µM is over 7.5 in assay [2], 1.51 to 1.75 in assay [3], over 0.201 in assay [5] and over 1 in assay [6]. For the same compound, the fold induction at 4 µM was over 7.5 in assay [2] and 1.51 to 1.75 in assay [3]. The values for the fold induction at 8 µM in assay [5] and in assay [6] were over 0.201 and over 1, respectively.

Take `Cn1cnnc1CC1(c2cccc(N3Cc4c(cc(CN5CC(C(=O)O)C5)cc4C(F)(F)F)C3=O)c2)COC1` [Compound 428]: the IC50 in assay [1] was at most 100 nM; in assay [4] it was under 100 nM. Moreover, the fold induction at 0.3 µM lay in the range of 1.01 to 2.5 in assay [2] and 1.01 to 1.3 in assay [3]. The fold induction at 1 µM lay in the range of 1.01 to 2.5 in assay [2], 1.01 to 1.3 in assay [3], 0.151 to 0.2 in assay [5] and 0.801 to 1 in assay [6]. In addition, the fold induction at 4 µM in assay [2] lay within 1.01 to 2.5; in assay [3], 1.01 to 1.3. Moreover, the fold induction at 8 µM is over 0.201 in assay [5] and over 1 in assay [6].

With `CC(c1cc2c(c(C(F)(F)F)c1)CN(c1cccc(C3(Cc4nncn4C)COC3)c1)C2=O)N1CC(S(C)(=O)=O)C1` (stereo not drawn) [Compound 430, 2-(3-(3-((4-methyl-4H-1,2,4-triazol-3-yl)methyl)oxetan-3-yl)phenyl)-6-(l-(3-(methylsulfonyl)azetidin-1-yl)ethyl)-4-(trifluoromethyl)isoindolin-1-one], the IC50 is at most 100 nM in assay [1] and under 100 nM in assay [4]. Besides, the fold induction at 0.3 µM fell in the range of 1.01 to 2.5 in assay [2] and 1.01 to 1.3 in assay [3]. For the same compound, the fold induction at 1 µM in assay [2] fell in the range of 1.01 to 2.5; in assay [3] it was 1.01 to 1.3; in assay [5], 0.101 to 0.15; in assay [6], 0.601 to 0.8.

For `Cn1cnnc1CC1(c2cccc(N3Cc4c(cc(CN5CCOCC5)cc4C(F)(F)F)C3=O)c2)COC1` [Compound 431, 2-(3-{3-[(4-methyl-4H-1,2,4-triazol-3-yl)methyl]oxetan-3-yl}phenyl)-6-[(morpholin-4-yl)methyl]-4-(trifluoromethyl)-2,3-dihydro-1H-isoindol-1-one], the IC50 in assay [1] was at most 100 nM; in assay [4] it was under 100 nM. For the same compound, the fold induction at 0.3 µM fell in the range of 2.51 to 5 in assay [2] and 1.31 to 1.5 in assay [3]. The fold induction at 1 µM in assay [2] was over 7.5; in assay [3], 1.31 to 1.5; in assay [5], over 0.201; in assay [6], over 1.

For the compound `Cn1cnnc1CC1(c2cccc(N3Cc4c(cc(CN5CCCC56COC6)cc4C(F)(F)F)C3=O)c2)COC1` [Compound 433, 2-(3-{3-[(4-methyl-4H-1,2,4-triazol-3-yl)methyl]oxetan-3-yl}phenyl)-6-({2-oxa-5-azaspiro[3,4]octan-5-yl}methyl)-4-(trifluoromethyl)-2,3-dihydro-1H-isoindol-1-one], the concentration for half-maximal inhibition (IC50) in assay [1] is at most 100 nM; in assay [4] it was under 100 nM. Besides, the figures for the fold induction at 0.3 µM in assay [2] and in assay [3] were 1.01 to 2.5 and 1.01 to 1.3, respectively. For the same compound, the fold induction at 1 µM in assay [2] was 5 to 7.5; in assay [3] it was 1.31 to 1.5; in assay [5], 0.151 to 0.2; in assay [6], 0.801 to 1.

With `Cn1cnnc1CC1(c2cccc(N3Cc4c(cc(CN5CCS(=O)(=O)CC5)cc4C(F)(F)F)C3=O)c2)COC1` [Compound 434, 4-{[2-(3-{3-[(4-methyl-4H-1,2,4-triazol-3-yl)methyl]oxetan-3-yl}phenyl)-3-oxo-7-(trifluoromethyl)-2,3-dihydro-1H-isoindol-5-yl]methyl}-1λ^6-thiomorpholine-1,1-dione], the IC50 in assay [1] was at most 100 nM; in assay [4], under 100 nM. For the same compound, the fold induction at 0.3 µM lay in the range of 2.51 to 5 in assay [2] and 1.01 to 1.3 in assay [3]. Also, the fold induction at 1 µM in assay [2] is 2.51 to 5; in assay [3] it was 1.01 to 1.3; in assay [5], 0.101 to 0.15; in assay [6], over 1.
